According to patent publication US20100048923A1, “ATR Inhibitor” (priority 2005, published 2010):

Experiments:
[1] = biological target: T1, ATR (Homo sapiens, UniProt Q13535); assay: ATR protein kinase activity (Flag-ATR immunoprecipitate, PHAS-I substrate, 32P-ATP); format: biochemical; conditions: 300 μM ATP, 20 minutes at 30° C., estimated from lines, read-out: IC50 for the phosphorylating activity of ATR
T1 construct: made in house; host or cells: 293T cells (ATCC: CRL-11268), transient transfection of pcDNA3.1 plasmid, anti-Flag M2 immunoprecipitate
Method: 1 μg of recombinant PHAS-I protein (Alexis Biochemicals) as a substrate, and Schizandrin B were added to mixtures of ATR and ATM for the kinase reaction as prepared in accordance with a Preparation of mixtures of ATR and ATM for kinase reaction as follows. 300 μM of ATP containing a suitable concentration of ^32P-ATP was added to react it for 20 minutes at 30° C. 4 volumes of SDS sample loading buffer (200 mM Tris-HCl (pH 6.8), 400 mM DTT and 8% SDS) were added to the reaction mixture to stop the reaction, and the obtained mixture is applied to 12% SDS-PAGE. After the gel as obtained was dried, […] corresponding to the band of ^32P—PHAS-I in the mixture was evaluated using autoradiography method. In the Figure, (A) and (B) indicate the relative activities of ATR and ATM, respectively, the horizontal axis indicates the concentration of Schizandrin B, and the vertical axis indicates the relative value of the count as obtained in Schizandrin B-treated group to that of no-addition of Schizandrin B group.
IC50s of the compounds for the phosphorylating activity of ATR were estimated based on the lines as obtained in accordance with Embodiment 7-1, except that, in Embodiment 7-1, the compounds of the Formulas (1) to (5) and the compound of the Formula (C) were used instead of Schizandrin B. The values are shown in Table 3.
ATR conjugated with Flag as constructed with conventional method as disclosed in, e.g. Non-Patent-Related Document 9 was used for a mixture of ATR for kinase reaction. In detail, Bam H1H-Swa I fragment of ATR gene (Sequence Number 4) (1 kb) was substituted with a gene having the ATR gene and Flag ([…]) at N terminal and the gene was amplified with PCR. So obtained gene product was introduced into pcDNA3.1, and target product was obtained from the plasmid. In addition, ATM conjugated with Flag as manufactured in accordance with the well-known method as disclosed in e.g. non-patent related documents 10 and 11 and using Quikchange site-Directed Mutagenesis Kit (Stratagene) was used for a mixture of ATM for kinase reaction.
These ATR and ATM plasmids tagged with Flag (Sequence Numbers 4 and 5) were transfected in 293T cells (ATCC: CRL-11268) by Calcium phosphate method as followed. After 2 days, 5 mg of cellular proteins were prepared using IP buffer in accordance with the Preparation of proteins as mentioned below instead of the UTB buffer, and ATR and ATM were immuno-precipitated with 20 μg of anti-Flag M2 monoclonal antibody (Sigma) for 4 hours at […], independently. The precipitates were incubated with beads conjugated with protein G cepharose (Amersham). […]

[2] = tested on: A549 cells; assay: G2/M checkpoint: cells containing phosphorylated histone H3 (flow cytometry) in UV-irradiated A549 cells; format: cell-based; conditions: 30 μM compound, 20 J/m^2 UV, ratio of G2/M (phospho-histone H3) cells to total, Control 1.88, UV irradiation alone 0.52
Method: A549 cells were seeded as 3×10^4 cells/cm^2 in the growth medium on 10 cm dish and incubated for overnight. Then, Schizandrin B was added to the medium as final concentration of 30 μM. At 1 hour after the addition of Schizandrin B, the medium was removed, and were irradiated with 20 J/m^2 and 50 J/m^2 of UV. After the UV irradiation, and then the cells were incubated in the Schizandrin B-containing medium having the same concentration as mentioned above for 1 hour. Then, the percentage of the cells containing phosphorylated histone H3 were measured in accordance with a Measurement of the phosphorylated histone H3 as mentioned below. The FIG. 2(A) is a result of flowcytometry as obtained in the treatment with Schizandrin B. In the FIG. 2(A), the encircled portion indicates the cell group in G2/M phase, numbers as mentioned above the portion indicates the ratio of the cells in G2/M phase to the total number of cells. In addition, the FIG. 2(B) indicates a graph showing the ratio.
Ratios of the cells in G2/M phase to the total number of cells were obtained in accordance with the Embodiment 2-1, except that, in the Embodiment 2-1, 20 J/m^2 of UV were irradiated instead of 20 J/m^2 and 50 J/m^2 of UV and the compounds of the formulas (1) to (10) and Angeloyl Gomisin A of a formula (C) (final concentration of 30 μM) as mentioned below were used instead of the final concentration of 30 μM of Schizandrin B. The result is shown in Table 1.
The cells were harvested and fixed with 70% ice-cooled ethanol after the washing with PBS. PBS containing 0.25% Triton X-100 was added, and the cells were stood on ice for 30 minutes. Cells were centrifuged (500×g, 5 minutes) and replaced to PBS containing 1% bovine serum albumin (BSA) and 1 μg of […] (specifically binding to the phosphorylated histone H3 at 13 Serine), and incubated for 4 hours at room temperature.
After the subsequent washes with PBS containing 1% BSA, goat anti-rabbit IgG antibody conjugated with FITC which diluted with 100 times with PBS containing 1% BSA was added, and incubated for 30 minutes at dark place. These cells were counterstained with PI in accordance with the FACS analysis as mentioned below. The percentage of cells containing phosphorylated histone H3 was measured and evaluated with flowcytometry (Beckman-Coulter).

[3] = tested on: P-p53 (Ser15) in A549 cells; assay: Phosphorylation of p53 at serine 15 in UV-irradiated A549 cells (immunoblot); format: cell-based; conditions: Homo sapiens, light or radiation study, 3 h, 30 μM compound, 25 J/m^2 UV, UV irradiation alone = 100%, Control 15.4, read-out: Relative rate of P-p53 (Ser15) band intensity
Method: A549 cells were seeded as 3×10^4 cells/cm^2 in the growth medium on 10 cm dish, incubated for overnight, and Schizandrin B was added in the medium as final concentration of 30 μM in the medium. After 1 hour incubation, the medium was removed, irradiated with 20 J/m^2 of UV, and incubated for 3 hours (hereinafter, referred to as “UV-cell group” with regard to the obtained cells).
It should be noted that both groups of the UV-cell group and IR-cell group were cultured in the presence of 50 μM of N-acetyl-L-Leucyl-L-Leucyl-L-norleucinal (Sigma, Mo., USA) (hereinafter, referred to as “LLnL”) from 15 minutes prior to the irradiation to collection of the cells as mentioned below. Protein in the cells were extracted in accordance with a Preparation of proteins as mentioned below, immunoblot analysis was performed with regard to the phosphorylated p53 at 15 serine (P-p53 (Ser 15)), p53 protein (p53), phosphorylated ATM protein at 1981 serine (P-ATM (Ser1981)) and glyceraldehyde-3-phosphate dehydrogenase (GAPDH) in accordance with an Immunoblot analysis as mentioned below.
The dose-depended effect of Schizandrin B on the phosphorylation of p53 in A549 cells irradiated with UV A549 cells were seeded as 3×10^4 cells/cm^2 in the growth medium on 10 cm dish, incubated for overnight, and Schizandrin B was added in the medium as final concentration of 10, 30 and 100 μM in the medium. After 1 hour incubation, the medium was removed, and the cells were irradiated with 20 J/m^2 of UV. The cells were treated with LLnL as mentioned in Embodiment 4. Then, expression of p53 and phosphorylated p53 at 15 serine (P-p53 (Ser15)) in the cells treated with the same concentration of Schizandrin B as mentioned above was examined.
Expression of phosphorylated p53 at 15 serine (P-p53 (Ser15)) was examined in accordance with Embodiment 5-1, except that, in Embodiment 5-1, compounds of the Formulas (1) to (10) and the compound of the Formula (C) (final concentration of 30 μM) were added in the medium instead of the addition of final concentration of 10, 30 and 100 μM of Schizandrin B in the medium, and 25 J/m^2 of UV was irradiated instead of the 20 J/m^2 of UV irradiation. Electrophoresis image as obtained is shown in FIG. 5-2, and relative ratio of the band intensity corresponding to P-p53 (Ser15) to that of the band as obtained in the irradiation with UV as 100% is shown in Table 2.
50 μg of cellular proteins (as prepared in accordance with the Preparation of proteins as mentioned below) were applied to SDS polyacrylamide gel electrophoresis (12.5%), the electrophored proteins were transferred into the nitrocellulose membrane in accordance with the standard method, and blocking reaction was performed for 1 hour at room temperature using Tris-buffered saline (TBS-T) containing 5% skim milk and 0.1% Triton X-100. So obtained membrane were incubated with the desired adequate antibodies as mentioned below for 16 hours at 4° C., and then incubated with secondary anti-serum (corresponding to the animal originated from the desired antibodies) conjugated with horseradish peroxidase for 1 hour at room temperature. Then, the target proteins were visualized with ECL reaction kit (Amersham) and chemiluminescence film (Amersham) to obtain a protein image.
The cells were harvested with ice-cooled PBS from the culture dish, and were washed twice with cooled PBS. Then, it was centrifuged to obtain cell pellet. The pellet was solubilized with UTB buffer as mentioned below to prepare cellular protein. The content of the proteins was measured with Protein Assay kit (Bio-Rad).

[4] = biological target: T2, ATM (Homo sapiens, UniProt Q13315); conditions: caffeine, literature; cited from earlier work
T2 construct: made in house; host or cells: 293T cells (ATCC: CRL-11268), transient transfection, anti-Flag M2 immunoprecipitate

T1 sequence (Q13535 whole entry A92R): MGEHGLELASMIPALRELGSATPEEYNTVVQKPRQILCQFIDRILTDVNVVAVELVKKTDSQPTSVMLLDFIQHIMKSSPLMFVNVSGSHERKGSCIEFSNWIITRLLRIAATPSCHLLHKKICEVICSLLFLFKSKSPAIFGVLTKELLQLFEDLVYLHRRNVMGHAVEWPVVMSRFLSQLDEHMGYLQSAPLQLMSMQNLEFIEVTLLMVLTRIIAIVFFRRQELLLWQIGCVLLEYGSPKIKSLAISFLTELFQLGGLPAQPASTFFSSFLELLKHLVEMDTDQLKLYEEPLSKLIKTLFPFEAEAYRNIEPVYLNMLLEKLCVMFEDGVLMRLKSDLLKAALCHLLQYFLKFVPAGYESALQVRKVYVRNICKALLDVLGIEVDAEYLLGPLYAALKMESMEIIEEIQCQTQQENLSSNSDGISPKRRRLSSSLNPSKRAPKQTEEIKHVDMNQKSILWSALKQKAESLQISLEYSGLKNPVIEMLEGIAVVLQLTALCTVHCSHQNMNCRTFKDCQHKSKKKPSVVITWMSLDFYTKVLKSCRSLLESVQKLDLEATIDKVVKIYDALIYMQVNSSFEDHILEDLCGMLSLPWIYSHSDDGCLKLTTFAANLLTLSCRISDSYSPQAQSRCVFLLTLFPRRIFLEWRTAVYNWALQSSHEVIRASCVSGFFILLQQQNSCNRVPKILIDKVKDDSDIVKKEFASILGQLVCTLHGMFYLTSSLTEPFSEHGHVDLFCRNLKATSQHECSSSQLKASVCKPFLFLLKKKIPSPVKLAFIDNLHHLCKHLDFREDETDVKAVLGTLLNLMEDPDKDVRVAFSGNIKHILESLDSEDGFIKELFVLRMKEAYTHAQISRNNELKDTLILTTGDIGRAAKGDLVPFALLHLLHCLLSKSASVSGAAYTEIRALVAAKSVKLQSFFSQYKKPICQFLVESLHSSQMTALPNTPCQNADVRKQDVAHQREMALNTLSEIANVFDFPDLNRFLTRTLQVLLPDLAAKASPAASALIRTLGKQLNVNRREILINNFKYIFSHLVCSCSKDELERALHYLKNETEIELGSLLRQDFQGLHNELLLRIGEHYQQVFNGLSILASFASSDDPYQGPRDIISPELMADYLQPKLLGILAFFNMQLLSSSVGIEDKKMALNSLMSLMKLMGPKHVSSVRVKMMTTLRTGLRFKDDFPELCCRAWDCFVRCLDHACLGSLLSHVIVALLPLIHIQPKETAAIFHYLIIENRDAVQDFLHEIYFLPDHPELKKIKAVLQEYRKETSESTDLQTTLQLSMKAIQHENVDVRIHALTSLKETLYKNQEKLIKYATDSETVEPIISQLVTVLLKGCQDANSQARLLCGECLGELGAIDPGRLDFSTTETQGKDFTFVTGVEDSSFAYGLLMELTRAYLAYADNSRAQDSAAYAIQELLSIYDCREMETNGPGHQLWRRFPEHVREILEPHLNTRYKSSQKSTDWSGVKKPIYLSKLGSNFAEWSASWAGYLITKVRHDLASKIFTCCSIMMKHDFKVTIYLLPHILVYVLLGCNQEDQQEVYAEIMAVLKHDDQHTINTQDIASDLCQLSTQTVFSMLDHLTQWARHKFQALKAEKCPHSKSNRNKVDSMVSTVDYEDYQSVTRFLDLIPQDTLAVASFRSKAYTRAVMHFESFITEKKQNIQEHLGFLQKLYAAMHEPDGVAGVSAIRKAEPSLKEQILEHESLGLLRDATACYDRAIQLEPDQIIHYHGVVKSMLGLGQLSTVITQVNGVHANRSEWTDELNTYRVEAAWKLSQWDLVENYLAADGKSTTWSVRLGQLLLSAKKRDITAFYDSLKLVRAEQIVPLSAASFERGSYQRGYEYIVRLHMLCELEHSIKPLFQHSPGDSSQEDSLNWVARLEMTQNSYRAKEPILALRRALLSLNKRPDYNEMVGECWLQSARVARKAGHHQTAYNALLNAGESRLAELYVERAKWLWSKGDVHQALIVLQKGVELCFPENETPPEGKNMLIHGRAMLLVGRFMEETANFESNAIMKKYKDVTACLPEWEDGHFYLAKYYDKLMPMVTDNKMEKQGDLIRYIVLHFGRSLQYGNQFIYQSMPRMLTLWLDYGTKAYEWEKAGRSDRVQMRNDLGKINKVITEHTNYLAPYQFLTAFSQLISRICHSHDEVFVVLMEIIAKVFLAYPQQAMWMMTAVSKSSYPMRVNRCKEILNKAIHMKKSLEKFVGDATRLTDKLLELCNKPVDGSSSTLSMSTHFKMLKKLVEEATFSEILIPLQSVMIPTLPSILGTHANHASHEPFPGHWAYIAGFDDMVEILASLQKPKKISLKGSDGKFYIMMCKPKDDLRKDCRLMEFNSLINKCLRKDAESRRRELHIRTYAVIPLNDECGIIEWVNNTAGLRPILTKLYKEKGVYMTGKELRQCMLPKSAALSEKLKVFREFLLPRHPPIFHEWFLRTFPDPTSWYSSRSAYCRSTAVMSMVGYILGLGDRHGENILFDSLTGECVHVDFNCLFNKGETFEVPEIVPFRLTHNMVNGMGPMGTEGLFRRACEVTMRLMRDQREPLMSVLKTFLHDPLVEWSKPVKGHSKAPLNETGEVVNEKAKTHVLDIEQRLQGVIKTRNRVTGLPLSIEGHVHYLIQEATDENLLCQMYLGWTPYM

Row | Structure (SMILES) | IC50 [1] [µM] | Rate of Divided cells [2] [%] | activity at 30 µM [3] [%] | IC50 for ATM relative to that of ATR [4]
1 | COc1cc2c(c(OC)c1OC)-c1c(cc3c(c1OC)OCO3)C[C@H](C)[C@@](C)(O)[C@H]2OC(=O)c1ccccc1 (atropisomer, axis not shown) [GC, Gomisin C] | 10.6 | – | – | –
2 | C/C=C(\C)C(=O)O[C@@]1(C)Cc2cc(OC)c(OC)c(OC)c2-c2c(cc3c(c2OC)OCO3)C[C@@H]1C (atropisomer, axis not shown) [AGA, Angeloyl Gomisin A, reference compound] | 111 | 1.04 ± 0.06 | 92.2 | –
3 | COc1cc2c(c(OC)c1OC)-c1c(cc(OC)c(OC)c1OC)C[C@](C)(O)[C@@H](C)C2 (atropisomer, axis not shown) [S, Schizandrin] | – | 0.68 ± 0.04 | 42.7 | –
4 | COc1cc2c(c(OC)c1OC)-c1c(cc3c(c1OC)OCO3)[C@H](OC(=O)c1ccccc1)[C@](C)(O)[C@@H](C)C2 (atropisomer, axis not shown) [GG, Gomisin G] | 32 | 1.13 ± 0.05 | 51.3 | –
5 | COc1cc2c(c(OC)c1OC)-c1c(cc3c(c1OC)OCO3)C[C@@H](C)[C@@H](C)C2 (atropisomer, axis not shown) [GN, Gomisin N] | – | 0.88 ± 0.12 | 38.4 | –
6 | C/C=C(/C)C(=O)O[C@H]1c2cc(OC)c(OC)c(OC)c2-c2c(cc3c(c2OC)OCO3)C[C@H](C)[C@@]1(C)O (atropisomer, axis not shown) [GB, Gomisin B] | – | 0.85 ± 0.12 | 60.9 | –
7 | COc1cc2c(c(OC)c1OC)-c1c(cc3c(c1OC)OCO3)C[C@H](C)[C@](C)(O)[C@H]2OC(=O)c1ccccc1 (atropisomer, axis not shown) [GC, Gomisin C] | – | 1.16 ± 0.16 | 49.8 | –
8 | COc1cc2c(c(OC)c1OC)-c1c(cc3c(c1OC)OCO3)C[C@H](C)[C@@](C)(O)C2 (atropisomer, axis not shown) [GA, Gomisin A] | – | 0.90 ± 0.07 | 58.3 | –
9 | Cn1c(=O)c2c(ncn2C)n(C)c1=O [Caffeine, 3,7-dihydro-1,3,7-trimethyl-1H-purine-2,6-dione] | – | – | – | ⅕
10 | COc1cc2c(c(O)c1OC)-c1c(cc(OC)c(OC)c1OC)C[C@](C)(O)[C@@H](C)C2 (atropisomer, axis not shown) [GH, Gomisin H] | 45.7 | 1.42 ± 0.03 | 50.3 | –
11 | COc1c2c(cc3c1-c1c(cc4c(c1OC)OCO4)C[C@H](C)[C@H](C)C3)OCO2 (atropisomer, axis not shown) [SchC, Schizandrin C] | – | 0.68 ± 0.11 | 42.6 | –
